Here are results for 3 substances from US6531435B1 (priority 2000, dated 2003).

Like-named read-outs stand apart in the source and are kept apart here.

For assay [1], the system named is TSST-1. The format is cell-based, Staphylococcus aureus.
The test system of assay [2] is S. aureus MN8. The format is cell-based, Staphylococcus aureus. As to conditions: 24 hours at 35° C.

As to PPG-5 Laureth-5, in assay [1], the “TSST-1” value turned out to be 609.2 ng/mL. Moreover, the “Final [S. aureus] (×10^9 CFU/ml)” value in assay [2] is 3.82 ×10^9 CFU/ml.
Turning to Steareth-2, in assay [1] (24 hours at 35° C.), the “TSST-1” value is 680.7 ng/mL. Moreover, the “Final [S. aureus] (×10^9 CFU/ml)” value in assay [2] is on record as 5.76 ×10^9 CFU/ml.
The like results for Laureth-4 were, in that order, 531.8 ng/mL and 4.57 ×10^9 CFU/ml.
